Experimental data taken from patent US20240400577A1, “MODULATORS OF PROTEIN KINASES” (VIBLIOME THERAPEUTICS, LLC, priority 2021, published 2024).

Assays:
Experiment in all cases: Kinase panel enzymatic inhibition assay (Nanosyn)
Type in all cases: biochemical
Conditions in all cases: compound 5 μM; ATP at Km; 30-minute pre-incubation
[1] = target: T1, ARAF (Homo sapiens, UniProt P10398)
T1 construct: purchased Nanosyn (contract screening)
T1 sequence (P10398 1-606): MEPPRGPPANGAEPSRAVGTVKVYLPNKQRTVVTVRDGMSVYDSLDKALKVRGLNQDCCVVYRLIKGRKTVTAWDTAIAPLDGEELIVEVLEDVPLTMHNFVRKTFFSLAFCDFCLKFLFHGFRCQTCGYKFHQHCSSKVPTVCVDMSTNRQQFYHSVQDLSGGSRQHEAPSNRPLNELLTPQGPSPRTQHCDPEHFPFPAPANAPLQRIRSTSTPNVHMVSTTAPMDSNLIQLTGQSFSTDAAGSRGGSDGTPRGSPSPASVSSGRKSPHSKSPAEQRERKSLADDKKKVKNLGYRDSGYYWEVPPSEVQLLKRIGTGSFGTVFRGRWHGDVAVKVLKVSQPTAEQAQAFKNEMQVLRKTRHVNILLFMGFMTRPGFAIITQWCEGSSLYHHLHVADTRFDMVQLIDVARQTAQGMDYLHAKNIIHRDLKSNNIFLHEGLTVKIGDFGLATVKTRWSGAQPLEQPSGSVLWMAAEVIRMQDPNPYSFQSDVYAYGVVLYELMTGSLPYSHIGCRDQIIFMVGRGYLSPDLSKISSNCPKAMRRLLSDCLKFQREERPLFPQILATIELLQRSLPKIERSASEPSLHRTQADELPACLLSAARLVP
Procedure, shortened: (§1)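 Enzymatic inhibition measured within a panel of at least 300 kinases, using a validated format such as Caliper LabChip mobility shift, ADP detection or time-resolved fluorescence. Compounds tested at 5 μM with ATP at each kinase's Km, after a 30-minute pre-incubation. Values given as percent inhibition or IC50.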

[2] = target: T2, BLK (Homo sapiens, UniProt P51451)
T2 construct: purchased Nanosyn (contract screening)
Procedure, shortened: as §1

[3] = target: T3, BRAF (Homo sapiens, UniProt P15056)
T3 construct: purchased Nanosyn (contract screening)
Procedure, shortened: as §1

[4] = target: T4, CLK4 (Homo sapiens, UniProt Q9HAZ1)
T4 construct: purchased Nanosyn (contract screening)
Procedure, shortened: as §1

[5] = target: T5, CRAF (Homo sapiens, UniProt P04049)
T5 construct: purchased Nanosyn (contract screening)
Procedure, shortened: as §1

[6] = target: T6, CSK (Homo sapiens, UniProt P41240)
T6 construct: purchased Nanosyn (contract screening)
Procedure, shortened: as §1

[7] = target: T7, DDR2 (Homo sapiens, UniProt Q16832)
T7 construct: purchased Nanosyn (contract screening)
T7 sequence (Q16832 22-855): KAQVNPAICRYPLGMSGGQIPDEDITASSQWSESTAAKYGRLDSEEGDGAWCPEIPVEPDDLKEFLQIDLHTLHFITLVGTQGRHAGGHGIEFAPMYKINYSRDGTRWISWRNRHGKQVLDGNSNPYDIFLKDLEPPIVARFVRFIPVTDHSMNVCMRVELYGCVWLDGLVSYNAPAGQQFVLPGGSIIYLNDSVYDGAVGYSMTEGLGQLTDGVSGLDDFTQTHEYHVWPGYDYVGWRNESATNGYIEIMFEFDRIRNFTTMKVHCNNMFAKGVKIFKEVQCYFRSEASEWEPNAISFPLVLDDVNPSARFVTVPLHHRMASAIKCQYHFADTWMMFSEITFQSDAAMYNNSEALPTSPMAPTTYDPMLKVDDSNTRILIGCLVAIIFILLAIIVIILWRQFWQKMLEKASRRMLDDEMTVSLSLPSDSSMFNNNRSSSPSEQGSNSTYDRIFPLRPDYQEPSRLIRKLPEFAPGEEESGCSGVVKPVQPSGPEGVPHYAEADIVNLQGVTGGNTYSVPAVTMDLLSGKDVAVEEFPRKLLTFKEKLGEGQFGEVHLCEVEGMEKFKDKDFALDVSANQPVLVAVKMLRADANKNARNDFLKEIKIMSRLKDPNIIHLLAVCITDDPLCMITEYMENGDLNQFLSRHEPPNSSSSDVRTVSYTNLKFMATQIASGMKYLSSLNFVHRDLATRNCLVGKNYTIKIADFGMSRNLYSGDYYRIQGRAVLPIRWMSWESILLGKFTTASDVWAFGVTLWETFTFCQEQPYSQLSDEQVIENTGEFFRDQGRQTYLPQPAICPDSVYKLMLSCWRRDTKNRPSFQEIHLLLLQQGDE
Procedure, shortened: as §1

[8] = target: T8, MAP4K2 (Homo sapiens, UniProt Q12851)
T8 construct: purchased Nanosyn (contract screening)
T8 sequence (Q12851 1-820): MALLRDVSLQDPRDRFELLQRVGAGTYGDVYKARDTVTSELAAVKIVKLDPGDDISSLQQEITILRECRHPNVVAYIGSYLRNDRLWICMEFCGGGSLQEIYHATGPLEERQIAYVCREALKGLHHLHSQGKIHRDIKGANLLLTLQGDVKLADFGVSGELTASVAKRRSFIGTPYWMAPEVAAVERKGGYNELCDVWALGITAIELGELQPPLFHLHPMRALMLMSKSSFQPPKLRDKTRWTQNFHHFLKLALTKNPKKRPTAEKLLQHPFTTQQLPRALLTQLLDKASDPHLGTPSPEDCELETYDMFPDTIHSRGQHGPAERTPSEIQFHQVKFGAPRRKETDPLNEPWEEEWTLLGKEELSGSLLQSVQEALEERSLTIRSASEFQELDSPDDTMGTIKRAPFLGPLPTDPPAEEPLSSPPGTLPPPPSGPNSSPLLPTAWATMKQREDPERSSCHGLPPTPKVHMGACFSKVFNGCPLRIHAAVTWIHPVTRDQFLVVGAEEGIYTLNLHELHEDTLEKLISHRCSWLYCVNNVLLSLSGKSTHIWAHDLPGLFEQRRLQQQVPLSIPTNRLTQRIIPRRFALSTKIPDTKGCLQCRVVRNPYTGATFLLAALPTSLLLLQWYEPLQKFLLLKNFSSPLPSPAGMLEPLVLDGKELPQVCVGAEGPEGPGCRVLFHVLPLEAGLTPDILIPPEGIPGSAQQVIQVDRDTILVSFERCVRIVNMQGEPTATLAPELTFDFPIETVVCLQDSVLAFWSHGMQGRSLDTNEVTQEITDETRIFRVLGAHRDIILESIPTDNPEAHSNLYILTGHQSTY
Procedure, shortened: as §1

T4 sequence (Q9HAZ1 whole entry): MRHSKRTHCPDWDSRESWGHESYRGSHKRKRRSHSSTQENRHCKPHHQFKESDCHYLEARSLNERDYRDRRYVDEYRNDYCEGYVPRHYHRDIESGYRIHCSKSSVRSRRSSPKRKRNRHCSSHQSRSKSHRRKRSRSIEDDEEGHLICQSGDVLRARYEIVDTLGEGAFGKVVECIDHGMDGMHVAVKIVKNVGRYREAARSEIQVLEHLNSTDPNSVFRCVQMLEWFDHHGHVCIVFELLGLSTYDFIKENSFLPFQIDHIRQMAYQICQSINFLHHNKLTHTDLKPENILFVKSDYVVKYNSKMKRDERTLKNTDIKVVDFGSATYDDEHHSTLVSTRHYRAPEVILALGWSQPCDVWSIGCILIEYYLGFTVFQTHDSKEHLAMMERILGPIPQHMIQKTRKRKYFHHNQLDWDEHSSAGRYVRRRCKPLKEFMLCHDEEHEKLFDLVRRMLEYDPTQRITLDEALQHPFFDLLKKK
T3 sequence (P15056 whole entry): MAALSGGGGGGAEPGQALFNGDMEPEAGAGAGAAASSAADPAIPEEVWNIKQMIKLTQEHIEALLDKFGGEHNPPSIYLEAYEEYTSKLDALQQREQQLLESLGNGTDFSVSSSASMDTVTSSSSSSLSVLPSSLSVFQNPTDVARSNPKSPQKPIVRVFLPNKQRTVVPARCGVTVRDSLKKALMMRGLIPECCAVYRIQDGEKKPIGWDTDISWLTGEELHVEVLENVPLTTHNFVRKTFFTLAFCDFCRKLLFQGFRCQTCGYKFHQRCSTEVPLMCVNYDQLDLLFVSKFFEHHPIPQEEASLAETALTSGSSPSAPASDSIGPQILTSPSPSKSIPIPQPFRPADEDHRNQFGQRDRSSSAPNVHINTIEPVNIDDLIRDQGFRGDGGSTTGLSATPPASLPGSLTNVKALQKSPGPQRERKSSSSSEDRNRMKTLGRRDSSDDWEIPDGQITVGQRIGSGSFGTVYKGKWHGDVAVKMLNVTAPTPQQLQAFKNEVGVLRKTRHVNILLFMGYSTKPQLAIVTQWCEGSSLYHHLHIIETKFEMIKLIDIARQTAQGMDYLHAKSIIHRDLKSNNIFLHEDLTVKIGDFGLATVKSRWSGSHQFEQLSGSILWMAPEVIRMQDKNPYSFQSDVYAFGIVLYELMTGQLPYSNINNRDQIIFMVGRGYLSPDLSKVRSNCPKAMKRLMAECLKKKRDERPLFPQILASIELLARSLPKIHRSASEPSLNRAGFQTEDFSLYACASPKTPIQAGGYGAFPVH
T2 sequence (P51451 whole entry): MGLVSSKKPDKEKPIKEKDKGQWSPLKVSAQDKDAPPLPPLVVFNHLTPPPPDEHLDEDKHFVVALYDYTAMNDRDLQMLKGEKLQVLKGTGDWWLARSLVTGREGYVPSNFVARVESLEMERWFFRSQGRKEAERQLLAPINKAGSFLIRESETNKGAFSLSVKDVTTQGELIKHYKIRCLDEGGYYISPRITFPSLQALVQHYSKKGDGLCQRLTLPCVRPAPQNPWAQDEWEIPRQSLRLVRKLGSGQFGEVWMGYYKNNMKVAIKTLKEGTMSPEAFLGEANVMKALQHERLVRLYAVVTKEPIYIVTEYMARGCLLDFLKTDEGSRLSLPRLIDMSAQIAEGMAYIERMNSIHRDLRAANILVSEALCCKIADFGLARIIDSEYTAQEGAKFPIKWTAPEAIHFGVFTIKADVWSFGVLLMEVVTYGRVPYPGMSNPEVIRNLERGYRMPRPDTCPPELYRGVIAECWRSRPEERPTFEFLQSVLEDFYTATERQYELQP
T5 sequence (P04049 whole entry): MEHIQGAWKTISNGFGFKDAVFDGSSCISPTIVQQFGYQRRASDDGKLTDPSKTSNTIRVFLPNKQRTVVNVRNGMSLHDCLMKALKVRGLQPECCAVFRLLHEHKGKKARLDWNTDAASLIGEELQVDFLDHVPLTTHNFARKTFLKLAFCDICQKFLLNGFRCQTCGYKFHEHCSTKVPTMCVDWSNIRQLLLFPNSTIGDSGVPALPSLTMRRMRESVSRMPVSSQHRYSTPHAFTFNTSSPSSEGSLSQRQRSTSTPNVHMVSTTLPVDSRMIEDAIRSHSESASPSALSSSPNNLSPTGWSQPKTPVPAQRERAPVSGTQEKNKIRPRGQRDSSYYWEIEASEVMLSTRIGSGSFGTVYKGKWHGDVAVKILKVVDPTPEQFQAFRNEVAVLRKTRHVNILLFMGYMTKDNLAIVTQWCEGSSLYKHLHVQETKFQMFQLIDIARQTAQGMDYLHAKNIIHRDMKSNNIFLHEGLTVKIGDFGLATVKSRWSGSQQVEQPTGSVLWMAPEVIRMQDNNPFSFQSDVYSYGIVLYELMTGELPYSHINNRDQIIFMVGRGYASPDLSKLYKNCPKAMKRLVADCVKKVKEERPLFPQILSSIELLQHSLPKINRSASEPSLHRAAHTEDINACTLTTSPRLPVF

Row | inhibition at 5 µM [1] | inhibition at 5 µM [2] | inhibition at 5 µM [3] | inhibition at 5 µM [4] | inhibition at 5 µM [5] | inhibition at 5 µM [6] | inhibition at 5 µM [7] | inhibition at 5 µM [8] | Structure (SMILES)
1 | ≥ 95% | < 79% | ≥ 95% | < 79% | ≥ 95% | < 79% | < 79% | < 79% | Cc1ccc(NC(=O)c2cc(S(C)(=O)=O)n(-c3ccc(F)cc3)n2)cc1-c1cc(N2CCOCC2)c(=O)n(C)c1 [Ex12, 1-(4-fluorophenyl)-N-(4-methyl-3-(1-methyl-5-morpholino-6-oxo-1,6-dihydropyridin-3-yl)phenyl)-5-(methylsulfonyl)-1H-pyrazole-3-carboxamide]
2 | ≥ 95% | < 79% | ≥ 95% | < 79% | < 79% | < 79% | ≥ 95% | < 79% | Cc1ccc(NC(=O)c2cc(S(C)(=O)=O)n(-c3ccc(F)cc3)n2)cc1Nc1nccc(-c2cccnc2N)n1 [Ex13, N-(3-((4-(2-aminopyridin-3-yl)pyrimidin-2-yl)amino)-4-methylphenyl)-1-(4-fluorophenyl)-5-(methylsulfonyl)-1H-pyrazole-3-carboxamide]
3 | ≥ 95% | 80 to 89% | ≥ 95% | < 79% | ≥ 95% | 80 to 89% | ≥ 95% | < 79% | Cc1ccc(NC(=O)c2cc(S(C)(=O)=O)n(-c3ccc(F)cc3)n2)cc1C#Cc1cnc2cccnn12 [Ex14, 1-(4-fluorophenyl)-N-(3-(imidazo[1,2-b]pyridazin-3-ylethynyl)-4-methylphenyl)-5-(methylsulfonyl)-1H-pyrazole-3-carboxamide]
4 | < 79% | < 79% | ≥ 95% | < 79% | ≥ 95% | 80 to 89% | ≥ 95% | < 79% | CCOC(=O)Nc1cn2nc(Nc3cc(NC(=O)c4cc(S(C)(=O)=O)n(-c5ccc(F)cc5)n4)ccc3C)ccc2n1 [Ex15, ethyl (6-((5-(1-(4-fluorophenyl)-5-(methylsulfonyl)-1H-pyrazole-3-carboxamido)-2-methylphenyl)amino)imidazo[1,2-b]pyridazin-2-yl)carbamate]
5 | < 79% | < 79% | < 79% | < 79% | < 79% | < 79% | < 79% | < 79% | CNC(=O)c1cc(Oc2ccc(NC(=O)c3cc(S(C)(=O)=O)n(-c4ccc(F)cc4)n3)c(F)c2)ccn1 [Ex17, 4-(3-fluoro-4-(1-(4-fluorophenyl)-5-(methylsulfonyl)-1H-pyrazole-3-carboxamido)phenoxy)-N-methylpicolinamide]
6 | < 79% | < 79% | 90 to 94% | < 79% | ≥ 95% | < 79% | ≥ 95% | < 79% | CCOC(=O)Nc1cn2nc(Nc3cc(NC(=O)c4cc([S+](C)[O-])n(-c5ccc(F)cc5)n4)ccc3C)ccc2n1 (stereo not drawn) [Ex18, ethyl (6-((5-(1-(4-fluorophenyl)-5-(methylsulfinyl)-1H-pyrazole-3-carboxamido)-2-methylphenyl)amino)imidazo[1,2-b]pyridazin-2-yl)carbamate]
